Source: patent US20250129385A1, “GENE-EDITING METHODS FOR EMBRYONIC STEM CELLS” (ABS Global, Inc., priority 2022, published 2025)

Assays:
Assay type in all cases: cell-based
ROSA safe harbor locus = test: CRISPR-Cas9 RNP gene editing of bovine ESC, indels by Sanger sequencing/TIDE, ROSA locus; conditions: gbESC_H2682 cells; RNP 20 pmol SpCas9 + 60 pmol sgRNA, program CM138; DNA after four days; TIDE
Procedure: (§1) Test edits were performed in the ROSA and CD18 loci. CRISPR guides targeting the CD18 (ITGB2) gene at chr1:144,776,517, or the ROSA safe harbor locus region chr22:17,210,883-17,210,982, (genome assembly ARS-UCD1.2/bosTau9) were designed and synthesized as sgRNA molecules (IDT, Coralville IA) as shown in Table 2.
(§2) Ribonucleoprotein complexes formed from 20 pmol SpCas9 (IDT, Coralville IA) and 60 pmol sgRNA were electroporated into gbESC_H2682 cells using P3 nucleofection solution and the Amaxa 4D program CM138. After four days DNA from the cells was harvested using QUICKEXTRACT™ reagent (Lucigen, Middleton WI), and PCR was performed using the primers in Table 3.

seventh exon of CD163 = test: CRISPR-CAS9 editing of porcine ESC, single-cell clones screened by PCR genotyping; conditions: two guides together, C9 line; RNP 20 pmol SpCas9 + 60 pmol sgRNA, pulse DS137; colonies screened at day 21
Source text: As proof of concept, the present inventors sought to create the CD163 edit disclosed in U.S. Pat. No. 11,535,850. Two guides, ctggcttact cctatcatga agg (SEQ ID NO: 103) and tcccatgcca tgaagagggt agg (SEQ ID NO: 104) were used to excise the seventh exon of CD163. These guides were electroporated into the C9 line by mixing cells in P3 nucleofection solution with ribonucleoprotein (20 pmol SpCas9 complexed with 60 pmol of the guide sgRNA) and using the pulse condition DS137 in a 4D-Nucleofector system (Lonza, Walkersville MD). Between day 7 and 12 post-electroporation, single cells were deposited one per well into a 96 well plate (coated with laminin 521 and containing TI media with Y27632) using a Hana Single Cell Dispenser instrument (Namocell, San Jose CA). Cells were allowed to grow until day 21, and then colonies were screened by PCR genotyping (see 11,535,850).

CD18 (ITGB2) gene = test: CRISPR-Cas9 RNP gene editing of bovine ESC, indels by Sanger sequencing/TIDE, CD18 locus; conditions: gbESC_H2682 cells; RNP 20 pmol SpCas9 + 60 pmol sgRNA, program CM138; DNA after four days; TIDE
Procedure: as §1, §2

[1] = tested on: Porcine stem cell line C2; test: Single passage cell growth in media #2 with additives (CELLTITER-GLO 2.0); conditions: simple defined media #2 plus additive, day five; for Cell Growth (% of simple media): line C2 passaged 1:80, laminin 521, changed daily
Procedure: A revised simple defined media #2 (Table 6, with lower ascorbic acid and FGF2) was used to determine any immediate benefit of certain additives over the timeframe of one passage.
Porcine stem cell line C2 (see Example 2) growing in the standard TI media conditions was passaged at a 1:80 ratio into a laminin 521 coated 24 well plate containing simple defined media #2 alone or with the addition of 1% bovine serum albumin, 1% Albumax, 1 mg/mL polyvinyl acetate, 1:500 chemically defined lipids (Gibco), 1:500 lipid mixture solution (Peprotech), 1:1000 Trace Elements B or C (Corning), sodium bicarbonate, and double the amount of ITS (insulin/transferrin/selenium). Cells were incubated at 38.5° C./5% 02 and media and additives were changed daily. On day five cell growth was measured using the CELLTITER-GLO® 2.0 kit (Promega, Madison WI).

## 750: sgRNA, guide sequence AGGCGATGACGAGATCGCGG, targeting bovine ROSA safe harbor locus (listed as DNA, chemistry not given here; listed as Bos taurus) [compound 750]
ROSA safe harbor locus
  Efficiency (%) (editing frequency): 58.2%

## 749: sgRNA, guide sequence ATAATCGAGACTCGACATGG, targeting bovine ROSA safe harbor locus (listed as DNA, chemistry not given here; listed as Bos taurus) [compound 749]
ROSA safe harbor locus
  Efficiency (%) (editing frequency): 66.5%

## 748: sgRNA, guide sequence TGTCGAGTCTCGATTATGGG, targeting bovine ROSA safe harbor locus (listed as DNA, chemistry not given here; listed as Bos taurus) [compound 748]
ROSA safe harbor locus
  Efficiency (%) (editing frequency): 74.3%

## SEQ ID NO: 103: guide ctggcttact cctatcatga agg used to excise the seventh exon of CD163 (guide CTGGCTTACTCCTATCATGAAGG; listed as DNA, chemistry not given here; listed as Sus scrofa)
Seventh exon of CD163
  clones homozygous for the CD163 edit: Two clones that were homozygous for the edit were found

## 754: sgRNA, guide sequence CCCCGTGGGACTCACCGGAC, targeting bovine CD18 (ITGB2) gene (listed as DNA, chemistry not given here; listed as Bos taurus) [compound 754]
CD18 (ITGB2) gene
  Efficiency (%) (editing frequency): 34.9%

## + 1% BSA (Gibco A10008-01): 1% bovine serum albumin added to simple defined media #2
[1]; line C2
  effect on cell growth in words: beneficial to cell growth
[1]
  Cell Growth (% of simple media): 187%

## SEQ ID NO: 104: guide tcccatgcca tgaagagggt agg used to excise the seventh exon of CD163 (guide TCCCATGCCATGAAGAGGGTAGG; listed as DNA, chemistry not given here; listed as Sus scrofa)
Seventh exon of CD163
  clones homozygous for the CD163 edit: Two clones that were homozygous for the edit were found

## O=C([O-])O.[Na+] [Sodium bicarbonate]
[1]
  Cell Growth (% of simple media): 75%
